Source: patent US5631002A, “Liniment for melanin inhibitors” (Shiseido Co., Ltd., priority 1994, dated 1997)

System: melanin pigment deposition in skin after sunlight exposure
Experiment: Whitening effect testing (hypochromic effect on sun-exposed upper arm skin of testees)
Format: in vivo, human
Conditions: applied twice daily for 4 weeks after sunlight exposure, 8 persons per group
Description: 40 testees were exposed to summer sunlight for 4 hours (2 hours a day for 2 days) and the skin of an inner lateral part of their upper arm was used as the subject of the test. Beginning after 5 days from the day they were exposed to the sunlight, each sample was applied to this skin once in the morning and once in the afternoon for 4 weeks. The panel was divided into 5 groups with 8 persons in each group. Testing was conducted using the following formulations.
The hypochromic effect after the application was evaluated based on the criteria below.
Samples were prepared with the blend compositions described in the aforementioned test method, and the drugs listed in Table 2 were used to compare the whitening effect.
40 testees were exposed to summer sunlight for 4 hours (2 hours a day for 2 days) and the skin of an inner lateral part of their upper arm was used as the subject of the test. Beginning after 5 days From the day they were exposed to the sunlight, each sample was applied to this skin once in the morning and once in the afternoon for 4 weeks. The panel was divided into 5 groups with 8 persons in each group. Testing was conducted using the following formulations.
Samples were prepared with the blend compositions described in the aforementioned test method, and the drugs listed in Table 4 were used to compare the whitening effect.
Samples were prepared with the blend compositions described in the aforementioned test method, and the drugs listed in Table 6 were used to compare the whitening effect.
40 testees were exposed to summer sunlight for 4 hours (2 hours a day for 2 days) and the skin of an inner lateral part of their upper arm was used as the subject of the test. Beginning after 5 days from the day they were exposed to the sunlight, each sample was applied to this skin once in the morning and once in the afternoon for 4 weeks. The panel was divided into 5 groups 5 with 8 persons in each group. Testing was conducted using the following formulations.
Samples were prepared with the blend compositions described in the aforementioned test Method, and the drugs listed in Table 8 were used to compare the whitening effect.

Oc1ccc(O)cc1 [Hydroquinone] was tested, and the “Effect (hypochromic effect)” value (Table 2, Blend Ratio 1.0 wt % in lotion) was “Δ (Δ: Very effective or effective on 30% to less than 50% testees)”, the “Effect (hypochromic effect)” value (Table 4, Blend Ratio 1.0 wt % in lotion) was “Δ (Δ: Very effective or effective on 30% to less than 50% testees)” and the “Effect (hypochromic effect)” value (Table 6, Blend Ratio 1.0 % in lotion) was “Δ (Δ: Very effective or effective on 30% to less than 50% testees)”. For the same compound, the “Effect (hypochromic effect)” value (Table 8, Blend Ratio (5) 1.0 in lotion) was “Δ (Δ: Very effective or effective on 30% to less than 50% testees)”.
